pIC50: −log10 of the molar value.
Tests used:
KDR = KDR (Homo sapiens (Human), UniProt P35968); test: KDR autophosphorylation ELISA in HUVEC cells; type: cell-based; details: cellular, VEGF165 stimulated
Outline: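 HUVECs grown 24 h at 37 °C, then serum-starved 24 h, were preincubated 1 h with an 8-point compound series (0.3% DMSO) and stimulated with 100 ng/mL human VEGF165 for 5 min. Phospho-KDR in lysates was measured by sandwich ELISA against a phospho-KDR standard; IC50 from 4-parameter logistic fit.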

Met = Met (Homo sapiens (Human), UniProt P08581); test: Met autophosphorylation ELISA in PC-3 cells; type: cell-based; details: cellular, HGF stimulated, read-out: c-Met IC50
Outline: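 Phospho-Met (panTyr) sandwich ELISA on lysates of PC-3 cells given 100 ng/mL HGF for 10 min after 1 h compound exposure (8-point curve, 0.3% DMSO) following 3 h serum starvation. Normalised to HGF-stimulated DMSO and reference-inhibitor wells; 4-parameter logistic IC50.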

AXL = AXL (Homo sapiens (Human), UniProt P30530); test: AXL autophosphorylation ELISA in A-172 cells; type: cell-based; details: cellular, Gas6 stimulated
Outline: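 Serum-starved (24 h) A-172 glioblastoma cells pretreated 1 h with compounds (8-point curve, 0.3% DMSO), then stimulated 15 min with 1 μg/mL Gas6. Lysate phospho-AXL measured by sandwich ELISA against a phospho-AXL standard; IC50 from 4-parameter logistic fit between DMSO and reference-inhibitor controls.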

Mer = Mer (Homo sapiens (Human), UniProt Q12866); test: Mer autophosphorylation ELISA in transient transfected 293A cells; type: cell-based; details: cellular, MERTK transfected 293A cells
Procedure: 293A cells (Thermo Fisher #R70507) were seeded at 1.5×10^6 cells/well onto 100 mm dish (Greiner #664169), in DMEM (Thermo Fisher #11995-040) containing 10% FBS (Thermo Fisher #26140-079), 1% MEM NEAA (Thermo Fisher #11140-050), 1% GlutaMax (Thermo Fisher #35050-061), and 1% Penicillin Streptomycin (Thermo Fisher #15140-122). 293A cells were incubated at 37° C., 5% CO2 for 24 h and then transfected with 6 μg MERTK DNA (Genecopoeia #EX-Z8208-M02) using TransIT LT1 transfection reagent (Mirus-Bio #MIR2305). After 24 h incubation, the transfected 293A cells were seeded at 1×10^5 cells/well onto 96-well plates (Corning #3904) in DMEM growth medium overnight. Test compounds were serially diluted to produce an 8-point dose curve in fresh serum-free medium to a final concentration of 0.3% DMSO (vehicle) and added to the cells and incubated for 1 h. Cells were then immediately lysed with 150 μL of cold 1× lysis buffer [20 mM Tris, 137 mM sodium chloride, 2 mM EDTA, 10% glycerol, 1% NP-40 alternative, 1 mM activated sodium orthovanadate, 1 mM PefaBloc SC (Sigma-Aldrich #11429868001), protease/phosphatase inhibitor tablet (Thermo Fisher #A32959)]. Lysates were clarified by centrifugation and 50 μL/well added into the human phospho-Mer DuoSet IC ELISA (R&D Systems #DYC2579-2). Assay was performed according to manufacturer's instructions and sample phospho-Mer concentrations were extrapolated using human phospho-Mer control (R&D Systems #841793) as a standard. Positive control wells (100% activity) contained DMSO-treated cell lysates. Negative control wells (0% activity) contained reference inhibitor-treated cell lysates. IC50 values were calculated by nonlinear regression analysis using a 4-parameter logistic curve fit in ActivityBase XE (IDBS).

[1] = target: Human Mer (residues R557-E882 with H628Q and R794A) (Homo sapiens (Human), UniProt Q12866); test: Human Mer kinase assay (33P radiometric, KinaseProfiler); type: biochemical; details: 10 μM ATP
Procedure: (§1) Kinase activity and compound inhibition were investigated using the ^33P-Phosphoryl transfer radiometric kinase assay, performed using the KinaseProfiler™ service of Eurofins Pharma Discovery Services UK Limited. Dose-response experiments were performed using nine compound concentrations in a 96-well microtiter plate. For each assay, all compounds were prepared to a 50× final assay concentration (50 μM) in 100% DMSO, then diluted in a half-log series, with the final top concentration at 1 μM. This working stock of the compound was added to the assay well as the first component in the reaction, followed by the remaining components as detailed in the following assay protocols below. The positive control wells (100% kinase activity) contain all components of the reaction including 2% DMSO (control for solvent effects), except the compound of interest. Blank wells contain all components of the reaction, with the reference inhibitor, staurosporine. This reference compound was used to abolish kinase activity and generated the 0% kinase activity base-line. IC50 values were calculated by nonlinear regression analysis using the sigmoidal dose-response (variable slope) curve fit on XLFit version 5.3 (ID Business Solutions).
Human Mer (residues R557-E882 with H628Q and R794A, 0.7 nM) was incubated with 8 mM MOPS pH 7.0, 0.2 mM EDTA, 30 mM NaCl, 250 μM GGMEDIYFEFMGGKKK (SEO ID NO. 44). 10 mM magnesium acetate, and 10 μM [γ-^33P-ATP]. The reaction was initiated by the addition of the Mg/ATP mix. After incubation for 40 minutes at room temperature, the reaction was stopped by the addition of phosphoric acid to a concentration of 0.5%. A reaction aliquot of 10 μL was then spotted onto a P30 filtermat and washed four times for 4 minutes in 0.425% phosphoric acid and once in methanol prior to drying and scintillation counting. Incorporated ^33P was measured using the Wallac Microbeta scintillation counter (Perkin Elmer).

[2] = target: Human Met (residues R974-S1390 with A1209G and V1290L) (Homo sapiens, UniProt P08581); test: Human Met kinase assay (33P radiometric, KinaseProfiler); type: biochemical; details: 10 μM ATP, read-out: c-Met IC50
Procedure: as §1
Human Met (residues R974-S1390 with A1209G and V1290L, 3.4 nM) was incubated with 8 mM MOPS pH 7.0, 0.2 mM EDTA, 250 μM KKKGQEEEYVFIE (SEO ID NO. 45), 1 mM sodium orthovanadate, 5 mM […], 10 mM magnesium acetate, and 10 μM [γ-33P-ATP]. The reaction was initiated by the addition of the Mg/ATP mix. After incubation for 40 minutes at room temperature, the reaction was stopped by the addition of phosphoric acid to a concentration of 0.5%. A reaction aliquot of […] was then spotted onto a P30 filtermat and washed four times for 4 minutes in 0.425% phosphoric acid and once in methanol prior to drying and scintillation counting. Incorporated 33P was measured using the Wallac Microbeta scintillation counter (Perkin Elmer).

[3] = target: Human Axl (residues H473-A894 with Q764R) (Homo sapiens (Human), UniProt P30530, Q764R); test: Human AXL kinase assay (33P radiometric, KinaseProfiler); type: biochemical; details: 10 μM ATP
Procedure: as §1
Human Axl (residues H473-A894 with Q764R, 161 nM) was incubated with 8 mM MOPS pH 7.0, 0.2 mM EDTA, 250 μM KKSRGDYMTMQIG (SEO ID NO. 43) 10 mM magnesium acetate and 10 μM [γ-33P-ATP]. The reaction was initiated by the addition of the Mg/ATP mix. After incubation for 40 minutes at room temperature, the reaction was stopped by the addition of phosphoric acid to a concentration of 0.5%. A reaction aliquot of 10 μL was then spotted onto a P30 filtermat and washed four times for 4 minutes in 0.425% phosphoric acid and once in methanol prior to drying and scintillation counting. Incorporated ^33P was measured using the Wallac Microbeta scintillation counter (Perkin Elmer).

Human Axl (residues H473-A894 with Q764R), sequence (P30530 473-894 Q764R): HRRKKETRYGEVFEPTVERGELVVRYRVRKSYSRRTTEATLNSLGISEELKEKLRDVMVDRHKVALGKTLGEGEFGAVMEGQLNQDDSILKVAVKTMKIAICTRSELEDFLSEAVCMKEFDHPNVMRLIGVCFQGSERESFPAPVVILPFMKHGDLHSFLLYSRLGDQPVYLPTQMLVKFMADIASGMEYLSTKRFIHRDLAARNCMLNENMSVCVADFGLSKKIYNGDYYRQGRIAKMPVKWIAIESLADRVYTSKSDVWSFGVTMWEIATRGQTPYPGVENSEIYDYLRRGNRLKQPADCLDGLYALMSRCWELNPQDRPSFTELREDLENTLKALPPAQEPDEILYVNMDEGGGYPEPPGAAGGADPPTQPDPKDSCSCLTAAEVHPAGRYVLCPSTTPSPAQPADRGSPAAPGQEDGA
AXL, sequence (P30530 26-894): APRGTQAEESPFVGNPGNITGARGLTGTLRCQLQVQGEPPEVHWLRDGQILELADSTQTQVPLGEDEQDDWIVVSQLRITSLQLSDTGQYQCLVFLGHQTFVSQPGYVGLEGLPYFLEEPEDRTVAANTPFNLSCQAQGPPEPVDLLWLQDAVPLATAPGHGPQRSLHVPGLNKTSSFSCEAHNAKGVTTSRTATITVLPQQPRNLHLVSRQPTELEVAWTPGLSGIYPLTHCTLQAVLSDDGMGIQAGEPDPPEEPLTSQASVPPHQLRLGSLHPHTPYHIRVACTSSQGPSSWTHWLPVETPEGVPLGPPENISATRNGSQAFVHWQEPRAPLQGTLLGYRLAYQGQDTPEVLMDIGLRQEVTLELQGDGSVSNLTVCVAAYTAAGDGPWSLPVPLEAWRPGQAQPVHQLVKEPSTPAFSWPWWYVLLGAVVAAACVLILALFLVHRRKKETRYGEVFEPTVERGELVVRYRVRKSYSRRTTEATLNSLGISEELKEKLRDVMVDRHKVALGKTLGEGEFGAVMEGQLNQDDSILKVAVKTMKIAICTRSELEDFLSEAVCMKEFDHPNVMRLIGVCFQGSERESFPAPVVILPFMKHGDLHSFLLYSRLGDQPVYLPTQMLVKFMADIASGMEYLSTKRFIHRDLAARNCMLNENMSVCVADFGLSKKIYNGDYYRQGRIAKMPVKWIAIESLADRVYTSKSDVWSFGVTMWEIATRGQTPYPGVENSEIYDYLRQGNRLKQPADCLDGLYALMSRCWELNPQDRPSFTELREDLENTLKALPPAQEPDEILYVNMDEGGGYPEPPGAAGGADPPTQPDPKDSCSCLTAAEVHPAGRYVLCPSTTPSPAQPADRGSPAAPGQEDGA
Met, sequence (P08581 25-1390): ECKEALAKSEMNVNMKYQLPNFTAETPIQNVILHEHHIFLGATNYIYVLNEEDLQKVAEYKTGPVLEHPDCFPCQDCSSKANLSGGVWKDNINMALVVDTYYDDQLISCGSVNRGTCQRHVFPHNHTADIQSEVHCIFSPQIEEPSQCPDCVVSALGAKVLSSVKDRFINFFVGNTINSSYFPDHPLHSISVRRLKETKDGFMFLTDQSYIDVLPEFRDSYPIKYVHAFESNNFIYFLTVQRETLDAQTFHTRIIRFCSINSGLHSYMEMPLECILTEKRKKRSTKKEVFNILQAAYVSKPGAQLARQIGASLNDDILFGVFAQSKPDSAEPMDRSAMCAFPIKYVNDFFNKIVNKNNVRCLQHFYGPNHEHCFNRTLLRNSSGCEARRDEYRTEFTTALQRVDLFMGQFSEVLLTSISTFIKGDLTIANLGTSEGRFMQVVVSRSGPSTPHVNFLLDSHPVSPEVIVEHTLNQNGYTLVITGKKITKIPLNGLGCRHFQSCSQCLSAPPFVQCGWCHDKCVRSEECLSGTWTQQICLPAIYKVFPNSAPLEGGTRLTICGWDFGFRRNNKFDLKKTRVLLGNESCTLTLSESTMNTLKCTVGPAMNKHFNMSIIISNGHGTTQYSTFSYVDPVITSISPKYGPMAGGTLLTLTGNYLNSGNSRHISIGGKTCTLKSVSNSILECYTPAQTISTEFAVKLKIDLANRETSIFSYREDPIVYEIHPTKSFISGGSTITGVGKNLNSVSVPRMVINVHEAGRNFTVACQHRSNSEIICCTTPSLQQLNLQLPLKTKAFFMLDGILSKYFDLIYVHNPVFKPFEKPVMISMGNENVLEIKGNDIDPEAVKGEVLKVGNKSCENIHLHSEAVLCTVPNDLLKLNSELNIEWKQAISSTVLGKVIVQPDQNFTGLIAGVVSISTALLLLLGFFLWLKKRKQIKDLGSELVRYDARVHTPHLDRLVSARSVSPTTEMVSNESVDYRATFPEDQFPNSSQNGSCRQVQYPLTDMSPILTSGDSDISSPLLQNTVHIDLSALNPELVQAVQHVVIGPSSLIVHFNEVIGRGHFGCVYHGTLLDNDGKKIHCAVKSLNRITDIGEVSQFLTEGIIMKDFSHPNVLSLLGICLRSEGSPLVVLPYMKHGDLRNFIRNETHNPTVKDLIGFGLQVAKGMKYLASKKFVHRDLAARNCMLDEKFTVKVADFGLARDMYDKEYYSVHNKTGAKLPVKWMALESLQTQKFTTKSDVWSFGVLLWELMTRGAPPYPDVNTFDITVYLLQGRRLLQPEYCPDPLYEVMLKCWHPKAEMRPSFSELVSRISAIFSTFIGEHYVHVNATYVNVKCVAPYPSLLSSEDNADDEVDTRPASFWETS
Mer, sequence (Q12866 21-999): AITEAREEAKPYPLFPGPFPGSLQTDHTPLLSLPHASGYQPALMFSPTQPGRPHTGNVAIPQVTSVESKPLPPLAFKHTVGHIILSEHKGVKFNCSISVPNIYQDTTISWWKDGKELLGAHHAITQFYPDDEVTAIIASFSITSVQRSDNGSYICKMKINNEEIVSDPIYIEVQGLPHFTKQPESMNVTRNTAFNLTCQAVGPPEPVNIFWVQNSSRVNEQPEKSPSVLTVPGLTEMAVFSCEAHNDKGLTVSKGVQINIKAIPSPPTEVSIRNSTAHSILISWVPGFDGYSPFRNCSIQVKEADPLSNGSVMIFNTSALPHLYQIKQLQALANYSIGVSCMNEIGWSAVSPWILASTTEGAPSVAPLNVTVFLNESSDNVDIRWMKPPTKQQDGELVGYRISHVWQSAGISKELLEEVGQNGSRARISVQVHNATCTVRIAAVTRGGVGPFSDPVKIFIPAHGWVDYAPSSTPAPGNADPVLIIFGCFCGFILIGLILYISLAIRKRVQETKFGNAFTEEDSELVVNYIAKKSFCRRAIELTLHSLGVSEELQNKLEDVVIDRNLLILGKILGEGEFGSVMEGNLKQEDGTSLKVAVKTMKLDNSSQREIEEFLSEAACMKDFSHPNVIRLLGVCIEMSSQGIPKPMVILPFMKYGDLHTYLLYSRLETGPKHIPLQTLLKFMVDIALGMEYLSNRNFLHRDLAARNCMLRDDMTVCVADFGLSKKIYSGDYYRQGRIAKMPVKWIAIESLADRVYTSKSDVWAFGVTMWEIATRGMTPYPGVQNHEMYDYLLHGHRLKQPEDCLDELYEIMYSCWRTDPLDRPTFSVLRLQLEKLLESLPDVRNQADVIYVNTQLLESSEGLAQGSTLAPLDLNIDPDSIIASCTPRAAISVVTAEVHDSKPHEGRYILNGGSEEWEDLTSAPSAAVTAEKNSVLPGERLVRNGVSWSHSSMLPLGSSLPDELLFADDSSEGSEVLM
Human Mer (residues R557-E882 with H628Q and R794A), sequence (Q12866 557-882, stated change not applied): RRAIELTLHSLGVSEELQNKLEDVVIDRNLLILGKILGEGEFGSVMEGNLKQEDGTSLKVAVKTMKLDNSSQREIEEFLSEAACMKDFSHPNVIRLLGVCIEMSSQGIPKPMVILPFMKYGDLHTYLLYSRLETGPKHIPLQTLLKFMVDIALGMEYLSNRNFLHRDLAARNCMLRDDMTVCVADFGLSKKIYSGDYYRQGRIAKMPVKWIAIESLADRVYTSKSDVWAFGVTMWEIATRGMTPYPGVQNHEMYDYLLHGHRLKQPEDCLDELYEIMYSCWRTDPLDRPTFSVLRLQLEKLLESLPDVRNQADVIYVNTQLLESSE

SMILES | pIC50 (KDR) | pIC50 (Met) | pIC50 (AXL) | pIC50 (Mer) | pIC50 [1] | pIC50 [2] | pIC50 [3]
COc1cc2nccc(Oc3ccc(NC(=O)C4(C(=O)Nc5ccc(F)cc5)CC4)cc3)c2cc1C(=O)NOCC(O)CO (single isomer, unassigned) [Compound 30, 1-N-[4-[6-(2,3-dihydroxypropoxycarbamoyl)-7-methoxyquinolin-4-yl]oxyphenyl]-1-N′-(4-fluorophenyl)cyclopropane-1,1-dicarboxamide] | 7.00 to 8.00 | 6.52 to 7.00 | 6.52 to 7.00 | < 6.52 |  |  | 
COc1cc2nccc(Oc3ccc(NC(=O)C4(C(=O)Nc5ccc(F)cc5)CC4)cc3)c2cc1C(=O)NOCC(O)CO (single isomer, unassigned) [Compound 31, 1-N-[4-[6-(2,3-dihydroxypropoxycarbamoyl)-7-methoxyquinolin-4-yl]oxyphenyl]-1-N′-(4-fluorophenyl)cyclopropane-1,1-dicarboxamide] | 7.00 to 8.00 | 6.52 to 7.00 | 7.00 to 8.00 | < 6.52 |  |  | 
COc1cc2nccc(Oc3ccc(NC(=O)C4(C(=O)Nc5ccc(F)cc5)CC4)cc3)c2cc1C(=O)O [Compound 6, 4-[4-[[1-[(4-fluorophenyl)carbamoyl]-cyclopropanecarbonyl]amino]-phenoxy]-7-methoxyquinoline-6-carboxylic acid] | < 6.52 | < 6.52 |  |  | 7.00 to 8.00 | ≥ 8.00 | 6.00 to 7.00
COc1cc2nccc(Oc3ccc(NC(=O)C4(C(=O)Nc5ccc(F)cc5)CC4)cc3)c2cc1C(=O)NO [Compound 20, 1-N′-(4-fluorophenyl)-1-N-[4-[6-(hydroxycarbamoyl)-7-methoxyquinolin-4-yl]oxyphenyl]cyclopropane-1,1-dicarboxamide] | 7.00 to 8.00 | 7.00 to 8.00 | 7.00 to 8.00 | 7.00 to 8.00 |  |  | 
COc1cc2nccc(Oc3ccc(NC(=O)C4(C(=O)Nc5ccc(F)cc5)CC4)cc3)c2cc1C(=O)NOC1COC1 [Compound 26, 1-N′-(4-fluorophenyl)-1-N-[4-[7-methoxy-6-(oxetan-3-yloxycarbamoyl)quinolin-4-yl]oxyphenyl]cyclopropane-1,1-dicarboxamide] | ≥ 8.00 | 7.00 to 8.00 | 7.00 to 8.00 | 7.00 to 8.00 |  |  | 
COc1cc2nccc(Oc3ccc(NC(=O)C4(C(=O)Nc5ccc(F)cc5)CC4)cc3)c2cc1C(=O)NOCCO [Compound 27, 1-N′-(4-fluorophenyl)-1-N-[4-[6-(2-hydroxyethoxycarbamoyl)-7-methoxyquinolin-4-yl]oxyphenyl]cyclopropane-1,1-dicarboxamide] | ≥ 8.00 | 7.00 to 8.00 | ≥ 8.00 | 7.00 to 8.00 |  |  | 
COc1cc2nccc(Oc3ccc(NC(=O)C4(C(=O)Nc5ccc(F)cc5)CC4)cc3)c2cc1C(=O)NN [Compound 32, 1-N′-(4-fluorophenyl)-1-N-[4-[6-(hydrazinecarbonyl)-7-methoxyquinolin-4-yl]oxyphenyl]cyclopropane-1,1-dicarboxamide] | ≥ 8.00 | 7.00 to 8.00 | ≥ 8.00 | ≥ 8.00 |  |  | 
COc1cc2nccc(Oc3ccc(NC(=O)C4(C(=O)Nc5ccc(F)cc5)CC4)cc3)c2cc1C(C)=O [Compound 34, 1-N-[4-(6-acetyl-7-methoxyquinolin-4-yl)oxyphenyl]-1-N′-(4-fluorophenyl)cyclopropane-1,1-dicarboxamide] | ≥ 8.00 | 7.00 to 8.00 | ≥ 8.00 | ≥ 8.00 |  |  | 
O=C(Nc1ccc(F)cc1)C1(C(=O)Nc2ccc(Oc3ccnc4cc(OCCO)c(-c5ncco5)cc34)cc2)CC1 [Compound 50, 1-N′-(4-Fluorophenyl)-1-N-[4-[7-(2-hydroxyethoxy)-6-(1,3-oxazol-2-yl)quinolin-4-yl]oxyphenyl]cyclopropane-1,1-dicarboxamide] | ≥ 8.00 | ≥ 8.00 | ≥ 8.00 | ≥ 8.00 |  |  | 
COc1cc2nccc(Oc3ccc(NC(=O)C4(C(=O)Nc5ccc(F)cc5)CC4)cc3)c2cc1P(C)(C)=O [Compound 51, 1-N-[4-(6-Dimethylphosphoryl-7-methoxyquinolin-4-yl)oxyphenyl]-1-N′-(4-fluorophenyl)cyclopropane-1,1-dicarboxamide] | 6.52 to 7.00 | 7.00 to 8.00 | 7.00 to 8.00 | 6.52 to 7.00 |  |  | 
COc1cc2c(Oc3ccc(NC(=O)C4(C(=O)Nc5ccc(F)cc5)CC4)cc3)ccnc2cc1C(=O)O [Compound 151, 4-[4-[[1-[(4-fluorophenyl)carbamoyl]cyclopropanecarbonyl]amino]phenoxy]-6-methoxyquinoline-7-carboxylic acid] | < 6.52 |  |  |  | 7.00 to 8.00 | 7.00 to 8.00 | 6.00 to 7.00
COc1cc2nccc(Oc3ccc(NC(=O)C4(C(=O)Nc5ccc(F)cc5)CC4)cc3)c2cc1-c1cccn1C(=O)OC(C)(C)C [Compound 181, tert-butyl 2-[4-[4-[[1-[(4-fluorophenyl)carbamoyl]cyclopropanecarbonyl]amino]phenoxy]-7-methoxyquinolin-6-yl]pyrrole-1-carboxylate] |  |  |  |  | 7.00 to 8.00 | 7.00 to 8.00 | 6.00 to 7.00

Reference: patent publication US11542259B2, “Compounds for the treatment of kinase-dependent disorders” (Exelixis, Inc., priority 2018, dated 2023)
